Data: patent US20170333421A1, “Population Pharmacokinetics of Liposomal Irinotecan” (IPSEN BIOPHARM LTD., priority 2016, published 2017)
Where a name gives a salt, the structure may show the parent alone. Read-outs that look alike come from different tables or passages of the source.

Tests used:
clinical = conditions: human, in vivo, 300 mg/m2
pancreatic cell lines = experiment: CellTiter-Glo cell viability, pancreatic cell panel; type: cell-based
Method: (§1) In vitro efficacy study was done using CellTiter-Glo® Luminescent Cell Viability Assay (Promega) with Corning Cat #3707 384well White Clear bottom plates. Cells were plated (1000 cells/well) in 384 well format and allowed to incubate @ 37 C for 24 hours. Monotherapy drugs were added at the 24 hr time point and then allowed to incubate @ 37 C for 24 hours. At the 48 hr time point the drugs in media were removed, washed with PBS, and fresh media was added. Cells were then allowed to incubate @ 37 C for 72 hours. At the 120 hr time point media was removed and CellTiter-Glo (CTG) reagent was added (1:1 ratio with PBS). Plate was read by luminometer (Envision Multilabel reader). More details of this assay can be found in Accelrys Notebook ELN as EXP-15-AC2111.
(§2) All cell lines had been adapted to and were maintained in RPMI with 10% fetal bovine serum and supplemented with penicillin/streptomycin (Invitrogen).
(§3) Data was analyzed using an in-house algorithm developed using Matlab (Mathworks, Natick MA). In summary, average CTG mean luminescent values were computed for 4 replicate wells. Outlier detection was performed by computing the coefficient of variation (CV>20%) and outliers were removed from the average. CTG values were normalized based on a control non-treated well. Drug concentration in microMolar (uM) was log transformed prior to fitting to a 4 parameter logistic curve.
(§4) Data quality control was performed to ensure that the concentration range is optimal according to these rules: (1) if the lowest concentration kills more than 70% of the cells the concentration range is deemed too potent (2) if the highest concentration kills less than 30% of the cells, the concentration range is deemed low or the cell line is too resistant. Additionally, goodness of the fit was evaluated using R^2 and R^2<0.9 is flagged as a bad fit. Statistical analysis was performed using JMP (SAS Institute Inc., NC).
(§5) Pancreatic cell lines were cultured to sub confluent state in 384 well plates prior to incubation with varying doses of SN-38 for 24 hours. Additions 72 hours of culture were performed prior to CTG assessment. Every well was run in 4 replicates, and the entire experiment was run in four different plates. The compared results from the four separate experiments show the reproducibility of the cytotoxic effects of SN-38.

CFPAC1 = experiment: CellTiter-Glo cell viability; type: cell-based; conditions: for IC50: Homo sapiens, CFPAC-1
Method: as §1, §2, §3, §4, §5

L3.6pL = experiment: CellTiter-Glo cell viability; type: cell-based; conditions: for IC50: Homo sapiens, 24 h exposure + 72 h recovery
Method: as §1, §2, §3, §4, §5

Aspc1 = experiment: CellTiter-Glo cell viability; type: cell-based; conditions: for IC50: Homo sapiens, Aspc1, 24 h exposure + 72 h recovery
Method: as §1, §2, §3, §4, §5

Hs766t = experiment: CellTiter-Glo cell viability; type: cell-based; conditions: for IC50: 24 h exposure + 72 h recovery
Method: as §1, §2, §3, §4, §5

SW1990 = experiment: CellTiter-Glo cell viability; type: cell-based; conditions: for IC50: Homo sapiens, SW1990, 24 h exposure + 72 h recovery
Method: as §1, §2, §3, §4, §5

L3.3 = experiment: CellTiter-Glo cell viability; type: cell-based; conditions: for IC50: L3.3, 24 h exposure + 72 h recovery
Method: as §1, §2, §3, §4, §5

HPAFII = experiment: CellTiter-Glo cell viability; type: cell-based; conditions: for IC50: Homo sapiens, HPAF-II, 24 h exposure + 72 h recovery
Method: as §1, §2, §3, §4, §5

SU8686 = experiment: CellTiter-Glo cell viability; type: cell-based; conditions: for IC50: Homo sapiens, SU.86.86, SU8686, 24 h exposure + 72 h recovery
Method: as §1, §2, §3, §4, §5

Panc6.03 = experiment: CellTiter-Glo cell viability; type: cell-based; conditions: for IC50: Panc6.03, 24 h exposure + 72 h recovery
Method: as §1, §2, §3, §4, §5

Colo357 = experiment: CellTiter-Glo cell viability; type: cell-based; conditions: for IC50: Homo sapiens, Colo357, 24 h exposure + 72 h recovery
Method: as §1, §2, §3, §4, §5

Panc1 = experiment: CellTiter-Glo cell viability; type: cell-based
Method: as §1, §2, §3, §4, §5

Miapaca2 = experiment: CellTiter-Glo cell viability; type: cell-based; conditions: for IC50: Homo sapiens, MIA PaCa-2
Method: as §1, §2, §3, §4, §5

BxPC3 = experiment: CellTiter-Glo cell viability; type: cell-based; conditions: for IC50: Homo sapiens, BXPC-3, BxPC3, 24 h exposure + 72 h recovery
Method: as §1, §2, §3, §4, §5

PL45 = experiment: CellTiter-Glo cell viability; type: cell-based; conditions: for IC50: PL45, 24 h exposure + 72 h recovery
Method: as §1, §2, §3, §4, §5

KP4 = experiment: CellTiter-Glo cell viability; type: cell-based; conditions: for IC50: Homo sapiens, KP-4, KP4, 24 h exposure + 72 h recovery
Method: as §1, §2, §3, §4, §5

Capan-2 = experiment: CellTiter-Glo cell viability; type: cell-based
Method: as §1, §2, §3, §4, §5

[1] = NAPOLI-1 observed 5-FU concentration; conditions: human, in vivo, intravenous; read-out: 5-FU estimated half-life after the end of infusion
Colorectal Cancer = conditions: cited from earlier work
[2] = n 2, read-out: IC50 Log(μM) mean (converted)
[3] = n 3, read-out: IC50 Log(μM) mean (converted)
[4] = n 4, read-out: IC50 Log(μM) mean (converted)
[5] = Kohne 2013, continuous infusion

CCc1c2c(nc3ccc(OC(=O)N4CCC(N5CCCCC5)CC4)cc13)-c1cc3c(c(=O)n1C2)COC(=O)[C@]3(O)CC [irinotecan HCl, (S)-4,11-diethyl-3,4,12,14-tetrahydro-4-hydroxy-3,14-dioxo1H-pyrano[3′,4′:6,7] indolizino[1,2-b]quinolin-9-yl-[1,4′bipiperidine]-1′-carboxylate]
AUC(0-inf) (clinical): 24700 ng·h/mL
Cmax (clinical): 4100 ng/mL

CCc1c2c(nc3ccc(O)cc13)-c1cc3c(c(=O)n1C2)COC(=O)[C@]3(O)CC [SN-38]
Tumor cell kill rates averaged across all cell lines (pancreatic cell lines): 90%
decrease in cell viability for most cell lines (pancreatic cell lines; 24 h SN-38, additional 72 h culture): around 90%
IC50 (pancreatic cell lines; 24 hours exposure, recovery period of 72 h, read-out: IC50 range across all pancreatic cell lines): 1 to 100000 pM
IC50 (pancreatic cell lines; basis of the uSN38 threshold, read-out: median IC50 in in-vitro pancreatic cell lines): 0.03 ng/mL
Tumor Cell Kill (%) mean (CFPAC1; CFPAC1): 84.74%
IC50 (CFPAC1; CFPAC1, 24 h exposure + 72 h recovery, n 2, read-out: IC50 Log(μM) mean (converted)): 3.16 pM
IC50 (CFPAC1; CFPAC1, 24 h exposure + 72 h recovery, read-out: IC50(nM) mean): 3.2 pM
IC50 (CFPAC1; CFPAC1, read-out: IC50 concentration): 3.2 pM
Tumor Cell Kill (%) mean (L3.6pL): 95.18%
IC50 (L3.6pL; [2]): 2.82 pM
IC50 (L3.6pL; read-out: IC50(nM) mean): 2.8 pM
Tumor Cell Kill (%) mean (Aspc1; Aspc1): 91.61%
IC50 (Aspc1; [3]): 0.00398 µM
IC50 (Aspc1; read-out: IC50(nM) mean): 0.00398 µM
Tumor Cell Kill (%) mean (Hs766t): 86.41%
IC50 (Hs766t; read-out: IC50(nM) mean): 63.1 nM
IC50 (Hs766t; Hs766T, n 2, read-out: IC50 Log(μM) mean (converted)): 63.1 nM
IC50 (Hs766t; Hs766T, read-out: IC50(nM) mean): 63.1 nM
IC50 (SW1990; [4]): 87.1 pM
IC50 (SW1990; read-out: IC50(nM) mean): 87.1 pM
Tumor Cell Kill (%) mean (SW1990; SW1990): 91.92%
Tumor Cell Kill (%) mean (L3.3; L3.3): 93.01%
IC50 (L3.3; [2]): 2.04 pM
IC50 (L3.3; read-out: IC50(nM) mean): 2 pM
Tumor Cell Kill (%) mean (HPAFII): 93.24%
IC50 (HPAFII; [3]): 0.00204 µM
IC50 (HPAFII; read-out: IC50(nM) mean): 0.00204 µM
IC50 (SU8686; [2]): 0.000692 µM
IC50 (SU8686; read-out: IC50(nM) mean): 0.000692 µM
Tumor Cell Kill (%) mean (SU8686; SU8686): 95.82%
Tumor Cell Kill (%) mean (Panc6.03; Panc6.03): 87.68%
IC50 (Panc6.03; [4]): 0.00115 µM
IC50 (Panc6.03; read-out: IC50(nM) mean): 0.00115 µM
Tumor Cell Kill (%) mean (Colo357; Colo357): 94.47%
IC50 (Colo357; [2]): 61.7 pM
IC50 (Colo357; read-out: IC50(nM) mean): 61.7 pM
IC50 (Panc1; Homo sapiens, PANC-1, Panc1, 24 h exposure + 72 h recovery, n 4, read-out: IC50 Log(μM) mean (converted)): 0.0138 µM
IC50 (Panc1; Homo sapiens, PANC-1, Panc1, 24 h exposure + 72 h recovery, read-out: IC50(nM) mean): 0.0138 µM
Tumor Cell Kill (%) mean (Panc1; Panc1): 89.54%
IC50 (Panc1; Panc1, 24 h exposure + 72 h recovery, read-out: IC50(nM) mean): 0.0138 µM
IC50 (Miapaca2; MiaPaCa2, read-out: IC50 concentration): 4.2 pM
IC50 (Miapaca2; Miapaca2, 24 h exposure + 72 h recovery, n 3, read-out: IC50 Log(μM) mean (converted)): 4.17 pM
IC50 (Miapaca2; Miapaca2, 24 h exposure + 72 h recovery, read-out: IC50(nM) mean): 4.2 pM
Tumor Cell Kill (%) mean (Miapaca2; Miapaca2): 91.23%
Tumor Cell Kill (%) mean (BxPC3; BxPC3): 77.37%
IC50 (BxPC3; [2]): 17 pM
IC50 (BxPC3; read-out: IC50(nM) mean): 17 pM
Tumor Cell Kill (%) mean (PL45; PL45): 92.16%
IC50 (PL45; [2]): 3.55 pM
IC50 (PL45; read-out: IC50(nM) mean): 3.5 pM
IC50 (KP4; [2]): 7.94 pM
IC50 (KP4; read-out: IC50(nM) mean): 7.9 pM
Tumor Cell Kill (%) mean (KP4; KP4): 86.62%
Tumor Cell Kill (%) mean (Capan-2; Capan-2): 94.61%
IC50 (Capan-2; Capan-2, 24 h exposure + 72 h recovery, read-out: IC50(nM) mean): 20.4 nM
IC50 (Capan-2; Homo sapiens, Capan-2, Capan-2, 24 h exposure + 72 h recovery, n 3, read-out: IC50 Log(μM) mean (converted)): 20.4 nM
IC50 (Capan-2; Homo sapiens, Capan-2, Capan-2, 24 h exposure + 72 h recovery, read-out: IC50(nM) mean): 20.4 nM

O=c1[nH]cc(F)c(=O)[nH]1 [5-FU, 5-fluorouracil]
half-life [1]: 8 to 14 min
Median OS (m) (Colorectal Cancer; Kohne 2013, bolus 463-531 mg/m^2/week): nrd
OS 3 y (Colorectal Cancer; Kohne 2013, bolus): 85%
OS 5 y (Colorectal Cancer; Kohne 2013, bolus): 79%
Median OS (m) (Colorectal Cancer; Kohne 2013, continuous infusion 800-3500 mg/m^2/week, N 797): nrd
OS 3 y (Colorectal Cancer; [5]): 85%
OS 5 y (Colorectal Cancer; [5]): 79%
Overall Survival HR, bolus vs continuous infusion (ref) (Colorectal Cancer; Kohne 2013 PETACC-2, BL 370-425 mg/m^2/d for 5 d q4w, N 804): 0.96
OS HR across different 5-FU dose intensities and dose administrations (Colorectal Cancer; meta-analysis, did not affect OS): 0.96-1.11
